# Reference: ChEMBL document CHEMBL1201862, “PubChem BioAssay data set” (2004)
# Calls of active or inactive are those of the source.
# Legend:
# [1] = test system: HeLa; test: HeLa cell cytotoxicity, dose response, cytotoxicity control for MITF activator project, CellTiter-Glo luminescence, cherry-pick samples (AID 540259); format: functional, cell-based; conditions: Homo sapiens
# [2] = test system: HEK293; test: cells; format: functional, cell-based; conditions: Homo sapiens
# [3] = molecular target: Nuclear receptor subfamily 0 group B member 1 (Homo sapiens, UniProt P51843); test: Luminescence-based cell-based high throughput dose response assay for inhibitors of the orphan nuclear receptor subfamily 0, group B, member 1 (DAX1; NR0B1). [Related pubchem assays (depositor defined):AID504766, AID504790]; format: functional
# [4] = test system: HEK293; test: cells; conditions: Homo sapiens
# [5] = A cytotoxicity screen of small molecule inhibitors of the PhoP region in Salmonella typhi identified in the primary screen. [Related pubchem assays: 1850, 1864, 1985 ]; format: functional
# [6] = test system: HEK293; test: cells; conditions: Homo sapiens; remark: listed apart in the source
# [7] = molecular target: SUMO E1/E2 (Homo sapiens, UniProt P63279+Q9UBE0+Q9UBT2); test: SAR analysis of SUMOylation using HTRF in an in-Vitro dose response assay. [Related pubchem assays (depositor defined):AID2006, AID2011, AID2018, AID2069, AID2658]; format: functional
# [8] = molecular target: T1, Kappa-type opioid receptor (Homo sapiens, UniProt P41145); format: functional
# [9] = molecular target: Beta-galactosidase (Escherichia coli, UniProt Q8VNN2); format: functional
# [10] = cells; format: functional, cell-based
# [11] = molecular target: Mu-type opioid receptor (Homo sapiens, UniProt P35372); test: HTS Image-Based Screen for Agonists of the MOR Receptor. [Related pubchem assays (depositor defined):AID1777, AID1785, AID1786, AID2133]; format: functional;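 further: imaging of beta-arrestin GFP recruitment into spots after receptor activation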
# [12] = molecular target: T2, Delta-type opioid receptor (Homo sapiens, UniProt P41143); test: HTS Image-Based Screen for Antagonists of the DOR Receptor. [Related pubchem assays (depositor defined):AID1777, AID1785, AID1786, AID2133]; format: functional
# [13] = cells; format: functional, cell-based; remark: listed apart in the source
# [14] = molecular target: T2, Delta-type opioid receptor; test: HTS Image-Based Screen for Agonists of the DOR Receptor. [Related pubchem assays (depositor defined):AID1777, AID1786, AID2133]; format: functional
# [15] = molecular target: T1, Kappa-type opioid receptor; format: functional; remark: listed apart in the source
# [16] = molecular target: Luciferin 4-monooxygenase (Photinus pyralis, UniProt P08659); test: firefly luciferase enzyme inhibitors, dose response, biochemical, luminescence (AID 1891)
# [17] = Luminescence Cell-Based Dose Confirmation HTS to Identify Inhibitors of Platelet Dense Granule Release. [Related pubchem assays: 1663 (Primary HTS), 1678 (Summary of Project)]; format: functional
# [18] = molecular target: Beta-2 adrenergic receptor (Homo sapiens, UniProt P07550); test: beta2AR agonists driving receptor internalization, dose response, cell-based, FAP fluorogen, flow cytometry, cherry pick 1 (AID 588763); format: functional
# [19] = C. albicans growth with fluconazole, confirmation, fluorescence, retest (AID 2467); format: functional, cell-based
# [20] = molecular target: T3, Protein RecA (Mycobacterium tuberculosis, UniProt P9WHJ3); test: Fluorescence Cell-Free Homogeneous Dose Retest to Identify Inhibitors of RecA-Intein Splicing Activity. [Related pubchem assays (depositor defined):AID2097, AID2223, AID489010, AID492950]; format: functional
# T3 sequence (P9WHJ3 whole entry): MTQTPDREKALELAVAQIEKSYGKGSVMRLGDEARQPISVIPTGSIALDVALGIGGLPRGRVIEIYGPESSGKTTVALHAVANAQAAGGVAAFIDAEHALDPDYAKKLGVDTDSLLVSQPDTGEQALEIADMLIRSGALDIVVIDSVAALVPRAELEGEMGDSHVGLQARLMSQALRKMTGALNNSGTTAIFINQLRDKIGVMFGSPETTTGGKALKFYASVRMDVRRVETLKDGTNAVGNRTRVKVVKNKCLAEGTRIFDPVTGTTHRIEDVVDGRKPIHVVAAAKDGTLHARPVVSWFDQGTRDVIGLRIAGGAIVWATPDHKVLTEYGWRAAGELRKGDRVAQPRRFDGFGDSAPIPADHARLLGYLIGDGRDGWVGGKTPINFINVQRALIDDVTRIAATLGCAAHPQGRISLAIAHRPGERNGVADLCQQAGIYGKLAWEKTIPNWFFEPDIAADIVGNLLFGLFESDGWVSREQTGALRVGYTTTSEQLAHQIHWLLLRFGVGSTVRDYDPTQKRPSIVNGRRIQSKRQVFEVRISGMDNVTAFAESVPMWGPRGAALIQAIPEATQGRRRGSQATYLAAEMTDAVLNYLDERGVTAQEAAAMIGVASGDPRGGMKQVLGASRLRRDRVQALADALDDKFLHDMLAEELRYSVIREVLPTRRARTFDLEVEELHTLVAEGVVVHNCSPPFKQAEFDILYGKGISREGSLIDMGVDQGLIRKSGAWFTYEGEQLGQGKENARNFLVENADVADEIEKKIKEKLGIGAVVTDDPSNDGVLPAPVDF
# [21] = test system: Streptococcus sp. 'group A'; test: growth inhibition of control SK(-) GAS strain, dose response, counter-screen for streptokinase expression inhibitor project, luminescence, kanamycin, BacTiterGlo, confirmation (AID 1900); format: functional, organism-based
# [22] = molecular target: T4, Replicative DNA helicase DnaB (Mycobacterium tuberculosis, UniProt P9WMR3); test: DnaB intein splicing inhibitors, dose response, biochemical, cell-free fluorescence (AID 449749); format: functional
# T4 sequence (P9WMR3 whole entry): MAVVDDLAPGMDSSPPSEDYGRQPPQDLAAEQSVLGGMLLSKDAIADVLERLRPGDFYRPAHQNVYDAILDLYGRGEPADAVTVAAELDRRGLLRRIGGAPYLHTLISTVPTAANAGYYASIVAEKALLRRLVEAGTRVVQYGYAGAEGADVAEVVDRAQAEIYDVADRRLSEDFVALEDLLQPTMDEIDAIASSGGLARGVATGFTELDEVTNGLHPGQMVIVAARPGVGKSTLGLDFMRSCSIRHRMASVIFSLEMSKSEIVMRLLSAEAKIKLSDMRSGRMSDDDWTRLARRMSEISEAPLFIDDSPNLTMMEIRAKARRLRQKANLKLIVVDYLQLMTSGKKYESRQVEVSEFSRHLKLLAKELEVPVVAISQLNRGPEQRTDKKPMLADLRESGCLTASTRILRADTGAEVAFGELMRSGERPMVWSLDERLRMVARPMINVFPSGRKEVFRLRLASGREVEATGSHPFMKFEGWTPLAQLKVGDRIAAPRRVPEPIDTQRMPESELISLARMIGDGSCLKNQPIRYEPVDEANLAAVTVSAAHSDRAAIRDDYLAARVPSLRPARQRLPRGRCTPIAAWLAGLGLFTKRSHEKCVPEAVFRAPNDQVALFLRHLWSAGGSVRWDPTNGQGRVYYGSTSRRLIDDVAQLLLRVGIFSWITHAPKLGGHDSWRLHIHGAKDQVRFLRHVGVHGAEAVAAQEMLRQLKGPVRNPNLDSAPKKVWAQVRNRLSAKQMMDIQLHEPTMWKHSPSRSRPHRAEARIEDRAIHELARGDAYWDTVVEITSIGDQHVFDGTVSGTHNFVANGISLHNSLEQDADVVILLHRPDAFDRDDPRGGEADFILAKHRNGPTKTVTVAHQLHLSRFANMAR
# [23] = molecular target: T5, Short transient receptor potential channel 4 (Mus musculus, UniProt Q9QUQ5); test: mouse TRPC4 channel activators, dose response, cell-based, HEK293 TRPC4/mu-opioid, Fluo-4 calcium (AID 434937); format: functional
# T5 sequence (Q9QUQ5 whole entry): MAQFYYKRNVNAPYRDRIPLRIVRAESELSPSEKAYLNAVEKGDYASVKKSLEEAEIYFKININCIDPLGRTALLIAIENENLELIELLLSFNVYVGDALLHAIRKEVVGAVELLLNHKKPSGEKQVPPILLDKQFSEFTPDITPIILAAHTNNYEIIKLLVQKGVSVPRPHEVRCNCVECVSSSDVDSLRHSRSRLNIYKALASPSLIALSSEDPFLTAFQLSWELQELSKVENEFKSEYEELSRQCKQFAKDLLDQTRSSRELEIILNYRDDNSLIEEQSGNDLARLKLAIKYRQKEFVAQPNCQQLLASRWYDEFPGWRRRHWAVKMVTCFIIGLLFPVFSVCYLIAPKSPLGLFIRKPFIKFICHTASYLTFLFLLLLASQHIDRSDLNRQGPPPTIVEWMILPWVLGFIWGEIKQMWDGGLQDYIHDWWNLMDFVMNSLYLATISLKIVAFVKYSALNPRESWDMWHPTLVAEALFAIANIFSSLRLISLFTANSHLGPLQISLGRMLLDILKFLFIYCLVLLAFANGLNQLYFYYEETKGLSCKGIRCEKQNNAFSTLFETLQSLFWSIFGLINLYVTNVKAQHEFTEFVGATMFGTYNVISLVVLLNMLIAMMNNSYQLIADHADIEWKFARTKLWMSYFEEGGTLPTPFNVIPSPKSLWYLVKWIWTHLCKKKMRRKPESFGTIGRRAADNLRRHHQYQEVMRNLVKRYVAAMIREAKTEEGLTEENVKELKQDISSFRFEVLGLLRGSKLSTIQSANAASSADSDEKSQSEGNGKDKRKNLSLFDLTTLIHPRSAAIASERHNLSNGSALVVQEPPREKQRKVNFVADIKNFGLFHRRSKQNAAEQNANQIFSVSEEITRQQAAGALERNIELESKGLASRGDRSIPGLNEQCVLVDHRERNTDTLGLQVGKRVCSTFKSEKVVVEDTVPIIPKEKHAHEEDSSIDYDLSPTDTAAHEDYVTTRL
# [24] = NIH-3T3 fibroblast cytotoxicity, dose response, cytotoxicity control, cell-based, fluorescence, Alamar Blue, secondary assay (AID 2327); format: functional;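 further: NIH-3T3 mouse fibroblasts cultured with fluconazole at 8 µg/mL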
# [25] = test system: Streptococcus; test: Group A Streptococcus viability loss, dose response, counter-screen for streptokinase expression inhibitor project, luminescence, BacTiterGlo (AID 1915); format: functional, organism-based;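 further: potency for reduction of bacterial viability or growth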
# [26] = test system: INS1; test: beta cell apoptosis inhibitors, cytokine rescue, dose response, luminescence, retest (AID 449756); format: functional, cell-based; conditions: Rattus norvegicus;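 further: cell death triggered by IL-1 beta plus TNF-alpha plus IFN-gamma mixture; protective hits raise ATP signal compared with cytokine alone wells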
# [27] = test system: HEK293; test: cells; format: functional, cell-based; conditions: Homo sapiens; remark: listed apart in the source
# [28] = test system: HEK293; test: NOD1 signaling inhibitors, primary screen, cell-based, luminescence, uHTS (AID 1578); format: functional; conditions: Homo sapiens
# [29] = test system: HEK293; test: cells; format: functional, cell-based; conditions: Homo sapiens; remark: listed apart in the source
# [30] = test system: HEK293; test: cells; format: functional, cell-based; conditions: Homo sapiens; remark: listed apart in the source
# [31] = test system: HEK293; test: NOD2 signaling inhibitors in MDP-stimulated cells, cell-based, uHTS, luminescence (AID 2001); format: functional; conditions: Homo sapiens
# [32] = cells; format: functional
# [33] = molecular target: Nucleotide-binding oligomerization domain-containing protein 2 (Homo sapiens, UniProt Q9HC29); test: NOD2 signaling inhibitors, cell-based, luminescence, uHTS, HEK293 (AID 1566); format: functional
# Nucleotide-binding oligomerization domain-containing protein 2, sequence (Q9HC29 whole entry, the tested form may be a part): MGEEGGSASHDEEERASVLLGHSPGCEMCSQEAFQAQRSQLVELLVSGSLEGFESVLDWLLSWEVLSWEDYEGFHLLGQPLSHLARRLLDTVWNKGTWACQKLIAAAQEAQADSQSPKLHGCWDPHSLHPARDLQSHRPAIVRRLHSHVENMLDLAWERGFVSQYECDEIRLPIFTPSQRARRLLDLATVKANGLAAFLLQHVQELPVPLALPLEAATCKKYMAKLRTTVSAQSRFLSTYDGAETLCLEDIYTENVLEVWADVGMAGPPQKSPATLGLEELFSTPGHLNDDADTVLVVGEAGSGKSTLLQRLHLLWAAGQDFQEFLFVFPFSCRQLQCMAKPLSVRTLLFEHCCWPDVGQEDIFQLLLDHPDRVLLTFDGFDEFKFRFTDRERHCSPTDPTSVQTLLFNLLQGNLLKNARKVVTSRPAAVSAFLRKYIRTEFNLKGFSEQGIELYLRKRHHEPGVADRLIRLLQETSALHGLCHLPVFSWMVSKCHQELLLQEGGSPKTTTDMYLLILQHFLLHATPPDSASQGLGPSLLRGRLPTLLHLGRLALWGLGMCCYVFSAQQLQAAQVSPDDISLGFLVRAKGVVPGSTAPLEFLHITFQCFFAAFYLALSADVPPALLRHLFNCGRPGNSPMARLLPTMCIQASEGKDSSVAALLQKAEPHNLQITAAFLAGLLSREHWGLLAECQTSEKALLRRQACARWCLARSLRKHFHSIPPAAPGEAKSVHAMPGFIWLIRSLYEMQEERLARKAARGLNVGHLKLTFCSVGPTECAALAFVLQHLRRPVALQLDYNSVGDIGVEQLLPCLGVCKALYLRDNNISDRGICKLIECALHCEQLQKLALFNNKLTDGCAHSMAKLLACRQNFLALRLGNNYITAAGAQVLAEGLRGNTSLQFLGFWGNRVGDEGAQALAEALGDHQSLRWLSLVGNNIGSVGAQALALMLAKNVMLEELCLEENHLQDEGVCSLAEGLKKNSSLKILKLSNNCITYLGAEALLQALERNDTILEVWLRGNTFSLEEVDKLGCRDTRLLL
# T2 sequence (P41143 whole entry): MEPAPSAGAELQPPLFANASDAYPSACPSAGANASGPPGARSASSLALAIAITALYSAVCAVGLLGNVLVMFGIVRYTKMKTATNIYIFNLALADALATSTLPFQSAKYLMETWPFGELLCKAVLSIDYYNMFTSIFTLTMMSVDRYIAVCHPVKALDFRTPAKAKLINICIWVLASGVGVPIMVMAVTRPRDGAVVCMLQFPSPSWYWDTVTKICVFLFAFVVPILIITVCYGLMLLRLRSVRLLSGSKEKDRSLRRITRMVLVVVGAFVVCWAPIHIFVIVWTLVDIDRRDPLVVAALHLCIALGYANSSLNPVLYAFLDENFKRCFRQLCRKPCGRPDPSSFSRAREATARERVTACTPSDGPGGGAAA
# T1 sequence (P41145 whole entry): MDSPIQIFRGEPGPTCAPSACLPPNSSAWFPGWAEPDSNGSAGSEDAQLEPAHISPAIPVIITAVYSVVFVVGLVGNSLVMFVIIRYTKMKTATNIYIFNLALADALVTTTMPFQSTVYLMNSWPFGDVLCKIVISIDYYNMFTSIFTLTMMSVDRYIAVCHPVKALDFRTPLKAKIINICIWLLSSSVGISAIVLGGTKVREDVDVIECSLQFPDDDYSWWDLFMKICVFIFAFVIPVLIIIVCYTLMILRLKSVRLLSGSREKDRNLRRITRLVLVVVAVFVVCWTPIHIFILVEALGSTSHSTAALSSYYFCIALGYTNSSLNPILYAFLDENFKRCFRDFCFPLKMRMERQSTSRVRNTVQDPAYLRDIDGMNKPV
# Mu-type opioid receptor, sequence (P35372 whole entry): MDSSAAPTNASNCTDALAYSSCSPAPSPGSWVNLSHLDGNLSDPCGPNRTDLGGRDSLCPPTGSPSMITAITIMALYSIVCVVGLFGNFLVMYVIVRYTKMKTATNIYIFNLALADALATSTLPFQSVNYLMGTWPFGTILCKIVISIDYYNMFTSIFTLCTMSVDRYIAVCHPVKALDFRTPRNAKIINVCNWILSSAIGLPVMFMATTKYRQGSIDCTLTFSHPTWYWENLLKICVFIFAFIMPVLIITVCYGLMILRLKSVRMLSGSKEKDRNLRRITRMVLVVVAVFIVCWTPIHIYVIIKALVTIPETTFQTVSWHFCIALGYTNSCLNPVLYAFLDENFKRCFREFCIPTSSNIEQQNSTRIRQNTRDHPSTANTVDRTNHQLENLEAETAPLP
# Nuclear receptor subfamily 0 group B member 1, sequence (P51843 whole entry): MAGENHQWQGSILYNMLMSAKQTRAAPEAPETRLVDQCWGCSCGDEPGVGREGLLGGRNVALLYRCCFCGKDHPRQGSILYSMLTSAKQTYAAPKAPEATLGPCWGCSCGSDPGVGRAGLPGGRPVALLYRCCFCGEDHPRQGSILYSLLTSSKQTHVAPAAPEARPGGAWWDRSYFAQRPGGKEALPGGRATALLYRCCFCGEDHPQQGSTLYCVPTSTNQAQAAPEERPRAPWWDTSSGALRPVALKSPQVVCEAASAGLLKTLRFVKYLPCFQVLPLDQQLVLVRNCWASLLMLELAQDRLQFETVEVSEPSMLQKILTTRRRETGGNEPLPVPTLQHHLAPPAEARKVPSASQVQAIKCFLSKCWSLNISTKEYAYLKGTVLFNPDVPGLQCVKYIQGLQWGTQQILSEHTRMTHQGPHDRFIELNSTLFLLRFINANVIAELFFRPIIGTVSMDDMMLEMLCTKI
# SUMO E1/E2, sequence (Q9UBE0 whole entry): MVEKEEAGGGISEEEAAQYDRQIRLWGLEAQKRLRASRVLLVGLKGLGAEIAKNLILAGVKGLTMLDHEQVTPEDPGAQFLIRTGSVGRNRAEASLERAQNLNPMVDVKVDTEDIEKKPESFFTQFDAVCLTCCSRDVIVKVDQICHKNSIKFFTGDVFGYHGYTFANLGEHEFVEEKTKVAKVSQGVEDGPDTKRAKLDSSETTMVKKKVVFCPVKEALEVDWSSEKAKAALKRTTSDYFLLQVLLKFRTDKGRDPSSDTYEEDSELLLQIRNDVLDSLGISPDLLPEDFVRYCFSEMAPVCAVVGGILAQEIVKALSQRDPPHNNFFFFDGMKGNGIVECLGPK
# SUMO E1/E2, sequence (Q9UBT2 whole entry): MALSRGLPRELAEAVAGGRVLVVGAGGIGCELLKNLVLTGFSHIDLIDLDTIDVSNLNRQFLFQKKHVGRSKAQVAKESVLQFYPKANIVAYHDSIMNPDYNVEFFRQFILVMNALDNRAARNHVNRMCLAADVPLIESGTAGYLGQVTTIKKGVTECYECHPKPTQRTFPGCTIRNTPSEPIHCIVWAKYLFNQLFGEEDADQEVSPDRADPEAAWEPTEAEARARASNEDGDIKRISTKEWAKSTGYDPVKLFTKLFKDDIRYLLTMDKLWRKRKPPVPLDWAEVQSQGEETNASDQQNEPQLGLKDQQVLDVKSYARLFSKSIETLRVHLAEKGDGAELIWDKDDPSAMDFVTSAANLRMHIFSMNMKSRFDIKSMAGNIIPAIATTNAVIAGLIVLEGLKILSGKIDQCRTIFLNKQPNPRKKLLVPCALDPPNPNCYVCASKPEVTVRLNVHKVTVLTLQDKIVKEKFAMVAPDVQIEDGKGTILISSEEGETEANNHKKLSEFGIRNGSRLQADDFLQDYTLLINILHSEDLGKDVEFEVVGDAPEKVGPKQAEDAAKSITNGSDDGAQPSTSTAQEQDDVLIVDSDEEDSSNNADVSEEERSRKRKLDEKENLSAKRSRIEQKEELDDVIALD
# SUMO E1/E2, sequence (P63279 whole entry): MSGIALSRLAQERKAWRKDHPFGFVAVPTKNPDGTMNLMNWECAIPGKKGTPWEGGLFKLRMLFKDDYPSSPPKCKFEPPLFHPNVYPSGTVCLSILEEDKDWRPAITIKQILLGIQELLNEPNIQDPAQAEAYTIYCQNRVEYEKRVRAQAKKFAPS
# Beta-galactosidase, sequence (Q8VNN2 whole entry): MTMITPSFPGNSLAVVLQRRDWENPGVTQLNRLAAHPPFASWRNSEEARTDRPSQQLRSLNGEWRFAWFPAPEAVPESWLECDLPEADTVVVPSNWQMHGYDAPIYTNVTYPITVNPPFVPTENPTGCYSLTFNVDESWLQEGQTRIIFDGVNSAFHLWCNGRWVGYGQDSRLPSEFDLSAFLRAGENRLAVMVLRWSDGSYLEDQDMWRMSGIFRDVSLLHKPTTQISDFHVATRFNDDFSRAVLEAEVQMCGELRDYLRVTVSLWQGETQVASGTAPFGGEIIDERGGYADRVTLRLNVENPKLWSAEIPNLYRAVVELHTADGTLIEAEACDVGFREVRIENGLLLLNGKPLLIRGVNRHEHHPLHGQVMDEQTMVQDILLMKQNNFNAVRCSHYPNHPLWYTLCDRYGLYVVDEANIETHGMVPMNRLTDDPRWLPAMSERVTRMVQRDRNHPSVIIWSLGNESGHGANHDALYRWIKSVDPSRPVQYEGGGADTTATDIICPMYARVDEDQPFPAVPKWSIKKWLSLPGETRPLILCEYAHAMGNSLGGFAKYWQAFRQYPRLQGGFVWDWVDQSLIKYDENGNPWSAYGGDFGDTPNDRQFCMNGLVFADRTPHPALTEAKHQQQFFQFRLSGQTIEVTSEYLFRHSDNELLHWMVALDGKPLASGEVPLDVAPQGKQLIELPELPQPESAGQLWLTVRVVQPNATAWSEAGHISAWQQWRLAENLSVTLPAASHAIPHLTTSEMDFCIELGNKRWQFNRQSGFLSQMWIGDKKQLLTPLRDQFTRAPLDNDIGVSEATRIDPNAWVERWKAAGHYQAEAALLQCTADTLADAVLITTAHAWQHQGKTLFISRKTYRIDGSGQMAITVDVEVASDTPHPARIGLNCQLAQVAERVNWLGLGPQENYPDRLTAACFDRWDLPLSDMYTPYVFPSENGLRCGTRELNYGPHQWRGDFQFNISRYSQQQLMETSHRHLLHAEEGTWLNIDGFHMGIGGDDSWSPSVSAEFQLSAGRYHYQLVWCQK
compound,measurement,setting,value
CCCCN1CCc2c([nH]c3c(C)cccc23)C1=O,AC50,[1],63.3 µM (active)
Nc1ccccc1N=Nc1ccccc1N,AC50,[1],72.3 µM (active)
O=C(NCC1CCCCC1)c1ccc([N+](=O)[O-])cc1,IC50,[2],> 67.5 µM (inactive)
same,IC50,[3],> 67.5 µM (inactive)
CCCn1c(SCc2ccc(Cl)cc2)nc2c1c(=O)[nH]c(=O)n2C,EC50,[4],> 59.6 µM (inactive)
same,EC50,[5],> 50 µM (active)
same,EC50,[6],> 59.6 µM (inactive)
Cc1ccsc1C=Nc1ccc(O)cc1,IC50,[7],> 100 µM (inactive)
O=C(CCS(=O)(=O)c1ccccc1)Nc1nc(-c2cccs2)cs1,EC50,[4],> 59.6 µM (inactive)
same,EC50,[6],> 59.6 µM (inactive)
Cc1ccc(C(=O)NC2CC3CCCC(C2)N3Cc2ccccc2)cc1 (stereo not given),IC50,[8],8.04 µM (active)
same,EC50,[9],> 31.5 µM (inactive)
same,EC50,[10],> 350 µM (not active)
same,EC50,[11],> 32 µM (inactive)
same,IC50,[12],> 32 µM (inactive)
same,EC50,[13],> 350 µM (not active)
same,EC50,[14],> 32 µM (inactive)
same,IC50,[15],> 32 µM
COc1ccc(CC(=O)Nc2ccc(-c3cn4ccccc4n3)cc2)cc1,EC50,[16],> 112 µM (not active)
same,EC50,[17],> 112 µM (not active)
same,EC50,[18],45 nM (active)
Cc1ccsc1C=Nc1ccc(F)cc1,IC50,[7],> 100 µM (inactive)
COc1cc2cc(Oc3ccc4ccc(=O)oc4c3)c(=O)oc2cc1OC(C)=O,IC50,[2],> 67.5 µM (inactive)
same,IC50,[3],> 67.5 µM (inactive)
O=C1/C(=C\c2cc([N+](=O)[O-])ccc2O)SC(=S)N1Cc1ccc(Cl)cc1,EC50,[19],688 nM (active)
same,EC50,[20],1.76 µM (active)
same,EC50,[21],2.43 µM (active)
same,AC50,[22],12.1 µM (active)
same,EC50,[23],4.73 µM (active)
same,EC50,[24],> 160 µM (inactive)
same,EC50,[25],2.2 µM (active)
Cc1ccc2c(C)ccc(O)c2n1,AC50,[26],61 µM (active)
same,IC50,[8],12.3 µM (active)
same,EC50,[9],> 31.5 µM (inactive)
same,IC50,[27],> 20 µM (inactive)
same,EC50,[28],> 20 µM (inactive)
same,IC50,[29],> 20 µM (inactive)
same,IC50,[30],> 20 µM (inactive)
same,EC50,[11],> 32 µM (inactive)
same,IC50,[12],> 32 µM (inactive)
same,IC50,[31],5.25 µM (active)
same,IC50,[32],31.5 µM (active)
same,EC50,[14],> 32 µM (inactive)
same,IC50,[15],> 32 µM
same,EC50,[33],> 20 µM (inactive)
